Assay results as given in patent publication US9221808B2, “Pyridylthiazole-based ureas as inhibitors of Rho associated protein kinase (ROCK) and methods of use” (H. Lee Moffitt Cancer Center and Research Institute, Inc., priority 2010, dated 2015).
Like-named read-outs stand apart in the source and are kept apart here.

Key:
ROCK1 = ROCK1 (Homo sapiens (Human), UniProt Q13464); experiment: FRET-based Z'-Lyte kinase assay, ROCK1; assay type: biochemical;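 note: kinase phosphorylates a coumarin/fluorescein-labelled FRET peptide, then a protease cleaves unphosphorylated peptide, progress read as donor to acceptor emission ratio after 400 nm excitation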
Chain of ROCK1 (Q13464 whole entry, species assumed): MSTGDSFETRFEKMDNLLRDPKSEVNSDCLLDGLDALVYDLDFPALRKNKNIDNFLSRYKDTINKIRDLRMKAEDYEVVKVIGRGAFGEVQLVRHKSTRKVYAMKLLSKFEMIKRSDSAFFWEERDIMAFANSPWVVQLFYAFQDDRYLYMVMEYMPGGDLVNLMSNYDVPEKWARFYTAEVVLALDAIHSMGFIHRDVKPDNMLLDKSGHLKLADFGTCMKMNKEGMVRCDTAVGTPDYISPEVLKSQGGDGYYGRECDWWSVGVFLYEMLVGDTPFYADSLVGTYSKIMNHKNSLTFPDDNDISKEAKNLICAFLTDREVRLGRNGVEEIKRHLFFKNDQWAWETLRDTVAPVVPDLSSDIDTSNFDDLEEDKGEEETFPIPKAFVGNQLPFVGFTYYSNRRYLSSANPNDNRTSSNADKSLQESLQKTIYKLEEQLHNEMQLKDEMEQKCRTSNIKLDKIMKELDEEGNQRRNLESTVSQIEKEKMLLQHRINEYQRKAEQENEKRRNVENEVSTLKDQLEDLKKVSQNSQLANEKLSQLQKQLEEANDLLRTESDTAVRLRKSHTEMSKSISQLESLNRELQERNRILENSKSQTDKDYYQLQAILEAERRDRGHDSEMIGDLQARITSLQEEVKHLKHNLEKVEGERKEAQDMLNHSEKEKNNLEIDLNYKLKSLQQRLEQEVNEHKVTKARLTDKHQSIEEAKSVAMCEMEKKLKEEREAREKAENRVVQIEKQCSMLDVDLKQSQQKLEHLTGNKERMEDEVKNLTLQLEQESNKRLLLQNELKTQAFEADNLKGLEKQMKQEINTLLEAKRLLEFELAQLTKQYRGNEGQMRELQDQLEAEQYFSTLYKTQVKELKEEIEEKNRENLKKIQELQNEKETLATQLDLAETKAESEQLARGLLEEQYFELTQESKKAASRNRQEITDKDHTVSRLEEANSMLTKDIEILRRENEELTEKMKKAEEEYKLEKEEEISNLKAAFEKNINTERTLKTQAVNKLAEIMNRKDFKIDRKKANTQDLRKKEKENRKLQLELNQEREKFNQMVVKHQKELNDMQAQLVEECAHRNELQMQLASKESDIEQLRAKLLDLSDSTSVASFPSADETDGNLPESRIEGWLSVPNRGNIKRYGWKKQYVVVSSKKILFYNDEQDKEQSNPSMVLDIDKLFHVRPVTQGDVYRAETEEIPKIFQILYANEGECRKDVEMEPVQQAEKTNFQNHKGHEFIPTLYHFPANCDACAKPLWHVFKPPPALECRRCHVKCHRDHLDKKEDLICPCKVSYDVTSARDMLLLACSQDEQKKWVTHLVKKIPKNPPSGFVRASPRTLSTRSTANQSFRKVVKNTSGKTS
Source text: (§1) A) In the primary reaction, the Rho kinases phosphorylates a single serine or threonine residue in a synthetic FRET-peptide. This FRET-peptide is doubly labeled with a fluorophore at each end—coumarin (the FRET donor) on one end and fluorescein (the FRET acceptor) on the other—and also contains a single phosphorylation site which either overlaps with or lies adjacent to the proteolytic site. B) In the secondary reaction, a site-specific protease recognizes and cleaves the non-phosphorylated FRET-peptide. Cleavage disrupts FRET between the donor and acceptor fluorophores on the FRET-peptide, whereas uncleaved, phosphorylated FRET-peptides maintain FRET. Kinases phosphorylated FRET-peptides cannot be cleaved by the protease. […] Cleavage disrupts FRET and causes a decrease in the fluorescein fluorescence signal and a strong increase in the coumarin fluorescence signal. Therefore the extension of the phosphprylation can be measured by FRET-signal remaining the protease reaction. The assay uses a ratiometric method, which calculates the ratio of donor emission to acceptor emission (the emission ratio) after excitation of the donor fluorophore at 400 nm, to quantitate reaction progress.
(§2) All compounds were systematically screened against ROCK1 and ROCK2.

[1] = tested on: phosphorylation of MYPT1, a substrate for ROCK kinase, in H1299 cells; experiment: phosphorylation levels of MYPT1 in intact H1299 cells (western blot); assay type: cell-based, human; conditions: for IC50: H1299 human lung cancer cells, read-out: IC50 for inhibition of phosphorylation of MYPT1
ROCK2 [2] = molecular target: T1, ROCK2 (Homo sapiens (Human), UniProt O75116); experiment: FRET-based Z'-Lyte kinase assay, ROCK2; assay type: biochemical;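 note: kinase phosphorylates a coumarin/fluorescein FRET peptide, then a protease cleaves unphosphorylated peptide, read as donor/acceptor emission ratio after 400 nm excitation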
T1 sequence (O75116 whole entry, species assumed): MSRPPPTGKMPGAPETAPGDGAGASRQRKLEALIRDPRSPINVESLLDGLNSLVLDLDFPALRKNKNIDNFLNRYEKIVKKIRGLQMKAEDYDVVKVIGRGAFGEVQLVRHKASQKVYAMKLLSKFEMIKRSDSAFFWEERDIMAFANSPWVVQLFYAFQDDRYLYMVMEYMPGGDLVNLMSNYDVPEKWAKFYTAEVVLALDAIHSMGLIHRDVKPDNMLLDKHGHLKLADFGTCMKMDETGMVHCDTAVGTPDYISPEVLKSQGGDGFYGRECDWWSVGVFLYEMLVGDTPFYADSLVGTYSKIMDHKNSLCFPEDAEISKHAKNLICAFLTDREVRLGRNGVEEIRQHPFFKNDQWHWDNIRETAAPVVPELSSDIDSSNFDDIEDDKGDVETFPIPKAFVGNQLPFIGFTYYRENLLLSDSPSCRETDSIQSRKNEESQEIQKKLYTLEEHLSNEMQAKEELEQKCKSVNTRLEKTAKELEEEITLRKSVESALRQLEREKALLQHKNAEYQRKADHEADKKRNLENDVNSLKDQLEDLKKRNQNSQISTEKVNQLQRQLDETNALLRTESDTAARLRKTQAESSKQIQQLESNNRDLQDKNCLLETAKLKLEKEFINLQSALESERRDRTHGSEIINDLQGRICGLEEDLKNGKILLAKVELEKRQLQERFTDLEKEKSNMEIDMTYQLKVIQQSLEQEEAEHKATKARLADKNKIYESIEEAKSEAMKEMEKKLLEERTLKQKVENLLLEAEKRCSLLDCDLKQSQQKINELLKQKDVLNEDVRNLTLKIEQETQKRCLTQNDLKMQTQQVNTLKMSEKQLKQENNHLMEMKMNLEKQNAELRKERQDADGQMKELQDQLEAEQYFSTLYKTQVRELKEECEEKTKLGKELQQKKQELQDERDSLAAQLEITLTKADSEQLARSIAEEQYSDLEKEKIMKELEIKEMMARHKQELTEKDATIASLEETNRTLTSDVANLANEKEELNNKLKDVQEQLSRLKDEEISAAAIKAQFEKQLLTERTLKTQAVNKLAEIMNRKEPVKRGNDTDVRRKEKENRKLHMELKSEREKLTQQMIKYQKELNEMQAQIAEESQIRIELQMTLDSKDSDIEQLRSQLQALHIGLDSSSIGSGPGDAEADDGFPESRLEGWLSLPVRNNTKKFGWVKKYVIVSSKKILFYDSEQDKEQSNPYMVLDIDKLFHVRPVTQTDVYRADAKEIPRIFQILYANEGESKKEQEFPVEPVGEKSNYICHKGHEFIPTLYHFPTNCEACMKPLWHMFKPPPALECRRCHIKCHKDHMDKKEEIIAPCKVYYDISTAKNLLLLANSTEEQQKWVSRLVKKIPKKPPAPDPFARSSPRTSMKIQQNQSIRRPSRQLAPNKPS
Source text: as §1, §2

Aurora-A = Aurora-A (Homo sapiens (Human), UniProt O14965); experiment: preliminary kinase-selectivity profile, Aurora-A; assay type: biochemical
Chain of Aurora-A (O14965 whole entry): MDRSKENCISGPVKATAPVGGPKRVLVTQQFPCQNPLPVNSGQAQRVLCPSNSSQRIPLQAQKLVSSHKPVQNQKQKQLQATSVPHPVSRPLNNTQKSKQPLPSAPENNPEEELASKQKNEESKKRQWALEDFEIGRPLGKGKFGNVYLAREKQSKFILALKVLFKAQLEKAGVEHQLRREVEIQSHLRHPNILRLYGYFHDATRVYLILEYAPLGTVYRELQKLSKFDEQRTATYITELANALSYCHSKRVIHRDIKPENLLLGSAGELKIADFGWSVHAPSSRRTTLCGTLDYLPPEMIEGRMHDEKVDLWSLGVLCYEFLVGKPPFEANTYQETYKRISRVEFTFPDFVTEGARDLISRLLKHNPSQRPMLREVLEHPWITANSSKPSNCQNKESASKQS

ROCK2 [3] = molecular target: T1, ROCK2; conditions: reported by MLSCN, assay ID 644; read-out: ROCK2 enzymatic activity IC50; cited from earlier work
breast tumors = experiment: transgenic mouse breast cancer model (rat Her2 under MMTV promoter); assay type: in vivo; conditions: 200 mpk/day, once a day for 14 days; last day of treatment relative to day of initiation
Experimental: The anti tumor activity of 1bo was determined in vivo in a transgenic mouse breast cancer model. In this model, the mice harbor the rat Her2 gene under the control of the MMTV promoter. These mice therefore spontaneously develop tumors in their mammary tissues. Breast tumors were measured beginning at the time of tumor onset and treatment (once a day for 14 days) with vehicle (20% HPCD) or 1bo (200 mpk/day) began when tumor volumes reached about 200 to 2,300 mm^3. A wide range of tumor volumes was used to ensure that responses were not volume dependent. […] The percent change was calculated from the tumor volume on the last day of treatment relative to the volume on the day of initiation of treatment. […] Thus, on average the breast tumors from 1bo treated mice were 6.6 fold smaller compared to those tumors from mice treated with the vehicle control.

SMILES | IC50 (ROCK1; read-out: ROCK1 IC50) | IC50 (ROCK1; read-out: IC50 ± SD (μM) ROCK1) | IC50 (ROCK2 [2]; read-out: IC50 ± SD (μM) ROCK2) | also measured
COc1ccc(CNC(=O)Nc2nc(-c3ccncc3)cs2)cc1 [Compound 1am, 1-(4-Methoxybenzyl)-3-(4-(pyridin-4-yl)thiazol-2-yl)urea] | – | – | – | inhibition at 50 µM (ROCK1; read-out: ROCK1 % inhibition @ 50 μM, 50 μM compound): 9.12%; effect on phosphorylation of MYPT1 ([1]; H1299 cells, 10 μM): did not affect
O=C(NCc1cccc(O)c1)Nc1nc(-c2ccncc2)cs1 [Compound 1bo, 1-(3-Hydroxybenzyl)-3-(4-(pyridin-4-yl)thiazol-2-yl)urea] | 0.008 µM | – | – | IC50 [1]: 500 nM; average percent change in tumor volume (breast tumors): 8.9%
O=C(Nc1nc(-c2ccncc2)cs1)N[C@H]1CCCc2ccccc21 [Compound 1cw] | – | 6.25 ± 1.36 µM | 3.35 ± 0.87 µM | –
CCCOc1cccc(CNC(=O)Nc2nc(-c3ccncc3)cs2)c1 [Compound 1bx, 1-(3-propoxybenzyl)-3-(4-(pyridin-4-yl)thiazol-2-yl)urea] | – | 3.36 ± 1 µM | 0.68 ± 0.43 µM | –

Further lines, with some results ahead:

IC50 (ROCK1; read-out: ROCK1 IC50) | IC50 (ROCK1; read-out: IC50 ± SD (μM) ROCK1) | IC50 (ROCK2 [2]; read-out: IC50 ± SD (μM) ROCK2) | SMILES | also measured
0.076 µM | – | – | O=C(Nc1nc(-c2ccncc2)cs1)C1COc2ccccc2O1 (stereo not drawn) [CID5056270, reference compound] | IC50 (ROCK2 [2]; read-out: ROCK2 IC50): 0.04 µM; IC50 (Aurora-A): > 100 µM; IC50 (ROCK2 [3]): < 3 nM
0.012 µM | – | – | O=C(NCc1cccc(O)c1)Nc1nc(-c2ccncc2)cs1 [Compound 1bo-Mes, 1-(3-hydroxybenzyl)-3-(4-(pyridin-4-yl)thiazol-2-yl)urea methanesulfonate] | IC50 (ROCK1; methanesulfonate, read-out: IC50 ± SD (μM) ROCK1): 0.013 µM; IC50 ([1]; NCI-H1299): 500 nM
– | 45.9 ± 5.15 µM | 17.4 ± 3.79 µM | Nc1ccc(CNC(=O)Nc2nc(-c3ccncc3)cs2)cc1 [Compound 1bl, 1-(4-Aminobenzyl)-3-(4-(pyridin-4-yl)thiazol-2-yl)urea] | –
